Results published in publication PMC6112376, “Comprehensive Analyses and Prioritization of Tox21 10K Chemicals Affecting Mitochondrial Function by in-Depth Mechanistic Studies” (Environmental Health Perspectives, 2018).
Where two headings read alike, the source gives them in different places.

Key:
[1] = tested on: HepG2 cells; assay: Oxygen consumption, Seahorse XF24 analyzer; type: cell-based, human
[2] = tested on: HepG2 cells; assay: cells; details: Homo sapiens
[3] = tested on: rat primary hepatocytes
[4] = tested on: Caenorhabditis elegans (Bristol N2); details: in vivo
[5] = tested on: HepG2 cells; assay: Intracellular ATP content (cell viability) assay; type: cell-based, human
[6] = tested on: Caenorhabditis elegans strain PE255; details: in vivo
[7] = tested on: HepG2 cells; details: read-out: MMP assays IC50 (µM) qHTS-HepG2; cited from earlier work
[8] = tested on: rat primary hepatocytes; assay: MMP assay in rat primary hepatocytes
[9] = tested on: Caenorhabditis elegans (Bristol N2); assay: C. elegans larval development and growth assay
[10] = tested on: Nrf2/ARE (ARE-bla HepG2 cells); assay: ARE β-lactamase reporter gene assay; type: cell-based, human
[11] = tested on: isolated rat liver mitochondria; assay: Oxygen consumption, Clark-type oxygen electrode; type: biochemical
[12] = tested on: HeLa cells expressing YFP-Parkin; assay: Parkin translocation assay; type: cell-based, human
[13] = tested on: HepG2 cells; assay: ROS-Glo hydrogen peroxide (ROS) assay; type: cell-based, human; details: for EC50: read-out: ROS (HepG2) EC50
[14] = tested on: Caenorhabditis elegans strain PE255; assay: In vivo C. elegans ATP status assay
[15] = tested on: p53 (p53-bla HCT-116 cells); assay: p53 β-lactamase reporter gene assay; type: cell-based, human
[16] = tested on: HepG2 cells
[17] = tested on: hNSC; assay: MMP assay in human neural stem cells (hNSC); type: cell-based

CCOCn1c(-c2ccc(Cl)cc2)c(C#N)c(Br)c1C(F)(F)F [Chlorfenapyr]
effect on oxygen consumption rate, Seahorse (in words) [1]: effects similar to that of FCCP | IC50 ([2]; HepG2, 1 h, read-out: HepG2 IC50 Galactose (MMP)): 1850 nM | IC50 ([2]; HepG2, 1 h, read-out: HepG2 IC50 Glucose (MMP)): 1670 nM | IC50 ([2]; HepG2, read-out: IC50 in HepG2 cells (MMP, tier-one retest)): 40 nM | Emax ([2]; HepG2, read-out: MMP assays efficacy (%) HepG2): 109% | MMP assays efficacy (%) Rat Hepatocytes [3]: -109±23% | Rat hepatocytes (efficacy) (MMP) [3]: 0.34±0.11 ( −90.8±10.1 ) % | inhibitory effect at (concentration) on larval growth in the C. elegans assay ([4]; Bristol N2 (wild type), Caenorhabditis elegans): 0.05 µM | IC50 ([5]; Homo sapiens, HepG2, 40 h, read-out: ATP (HepG2, galactose) IC50): 7010 nM | IC50 ([5]; Homo sapiens, HepG2, 40 h, read-out: ATP (HepG2, glucose) IC50): 6410 nM | inhibitory effect at (concentration) on ATP content in the C. elegans assay ([6]; PE255 [sur-5::luc+::gfp, rol-6(su1006)], Caenorhabditis elegans): 0.25 µM | IC50 [7]: 0.07 ± 0.04 µM | IC50 ([8]; Rattus norvegicus, Hepatocyte, 1 h, read-out: IC50 in rat primary hepatocytes (MMP, tier-one retest)): 70 nM | IC50 ([8]; Rattus norvegicus, Hepatocyte, 1 h, read-out: Rat hepatocytes IC50 (MMP)): 340 nM | larval growth effect at 0.5μM ([9]; 0.5 µM): severe larval growth arrest | minimal effective concentration ([9]; Caenorhabditis elegans, read-out: LEC EXT: lowest effect concentration for extinction, a measure of nematode size): 0.05 µM | ARE (HepG2) EC50 ([10]; 16 h incubation, mean±SD of three experiments): Inactive | Potential Mechanism [11]: Uncoupler at low concentrations (0.16-20 µM), and Uncoupler + inhibitor at high concentration (100 µM) | effect on mitochondrial respiration (in words) [11]: effects similar to those of FCCP | uncoupler effect at (concentration) in the oxygen consumption assay [11]: 0.16 µM | I-ADP, % of control (O2 consumption rate) ([11]; 0.032 µM): 99 (43.1) % of control | I-sub, % of control (O2 consumption rate) ([11]; 0.032 µM): 116 (15.2) % of control | II-ADP, % of control (O2 consumption rate) ([11]; 0.032 µM): 99 (67.2) % of control | II-sub, % of control (O2 consumption rate) ([11]; 0.032 µM): 108 (22.5) % of control | I-ADP, % of control (O2 consumption rate) ([11]; 0.16 µM): 96 (41.8) % of control | I-sub, % of control (O2 consumption rate) ([11]; 0.16 µM): 131 (17.1) % of control | II-ADP, % of control (O2 consumption rate) ([11]; 0.16 µM): 112 (75.7) % of control | II-sub, % of control (O2 consumption rate) ([11]; 0.16 µM): 119 (24.9) % of control | I-ADP, % of control (O2 consumption rate) ([11]; 0.8 µM): 120 (52.1) % of control | I-sub, % of control (O2 consumption rate) ([11]; 0.8 µM): 242 (31.7) % of control | II-ADP, % of control (O2 consumption rate) ([11]; 0.8 µM): 106 (71.8) % of control | II-sub, % of control (O2 consumption rate) ([11]; 0.8 µM): 180 (37.6) % of control | I-ADP, % of control (O2 consumption rate) ([11]; 4 µM): 177 (76.8) % of control | I-sub, % of control (O2 consumption rate) ([11]; 4 µM): 544 (71.3) % of control | II-ADP, % of control (O2 consumption rate) ([11]; 4 µM): 124 (84.2) % of control | II-sub, % of control (O2 consumption rate) ([11]; 4 µM): 359 (75.1) % of control | I-ADP, % of control (O2 consumption rate) ([11]; 20 µM): 91 (39.4) % of control | I-sub, % of control (O2 consumption rate) ([11]; 20 µM): 324 (42.4) % of control | II-ADP, % of control (O2 consumption rate) ([11]; 20 µM): 80 (54.0) % of control | II-sub, % of control (O2 consumption rate) ([11]; 20 µM): 281 (58.7) % of control | I-ADP, % of control (O2 consumption rate) ([11]; 100 µM): 54 (28.6) % of control | I-sub, % of control (O2 consumption rate) ([11]; 100 µM): 277 (37.3) % of control | II-ADP, % of control (O2 consumption rate) ([11]; 100 µM): 35 (23.6) % of control | II-sub, % of control (O2 consumption rate) ([11]; 100 µM): 139 (30.2) % of control | Parkin recruitment [12]: Active | Parkin translocation into mitochondria (in words) ([12]; 3 h): patterns similar to antimycin A and FCCP | EC50 ([13]; Homo sapiens, HepG2, 2 h): 1930 nM | minimal effective concentration ([14]; Caenorhabditis elegans, read-out: LEC LUM: lowest effect concentration for luminescence, a measure of nematode ATP content): 0.25 µM

N#CC(C#N)=NNc1ccc(OC(F)(F)F)cc1 [FCCP, carbonyl cyamide 4-(trifluoromethoxy)phenylhydrazone, reference compound]
Activity in oxygen consumption [1]: Uncoupler+inhibitor | Rat hepatocytes (efficacy) (MMP) [3]: 0.35±0.06 ( −95.4±4.65 ) % | LEC (lowest effect concentration), larval growth assay [4]: < 10 µM | ATP (HepG2, galactose) (efficacy) [5]: 4.25±0.97 ( −91.9±3.75 ) % | ATP (HepG2, glucose) (efficacy) [5]: 2.90±0.72 ( −90.1±9.46 ) % | IC50 ([5]; read-out: ATP (HepG2, galactose) IC50): 4250 nM | IC50 ([5]; read-out: ATP (HepG2, glucose) IC50): 2900 nM | LEC (lowest effect concentration), ATP assay [6]: < 10 µM | IC50 ([8]; read-out: Rat hepatocytes IC50 (MMP)): 350 nM | p53 (HCT-116) EC50 [15]: Inactive | HepG2 (efficacy) Galactose (MMP) [16]: 1.12±0.33 ( −94.6±1.13 ) % | HepG2 (efficacy) Glucose (MMP) [16]: 1.05±0.38 ( −95.8±2.94 ) % | IC50 ([16]; read-out: HepG2 IC50 Galactose (MMP)): 1120 nM | IC50 ([16]; read-out: HepG2 IC50 Glucose (MMP)): 1050 nM | hNSC (efficacy) (MMP) [17]: 0.27±0.08 ( −94.2±2.36 ) % | IC50 ([17]; read-out: hNSC IC50 (MMP)): 270 nM | LEC EXT: lowest effect concentration for extinction, a measure of nematode size ([9]; in vivo): 2.5 µM | ARE (HepG2) EC50 [10]: Inactive | Potential Mechanism [11]: Uncoupler at lower concentrations (0.032-0.16 µM), and Uncoupler + inhibitor at high concentrations (0.8 - 100 µM) | concentration at which RCR began to decrease [11]: 32 nM | concentration at which RCR reached unity (complete uncoupling) [11]: 4 µM | glutamate/malate-driven state 4 respiration, maximal increase over the baseline level [11]: approximately 4 fold | succinate-driven state 4 respiration, maximal response over the baseline level [11]: 2.6 fold | uncoupler effect at (concentration) in the oxygen consumption assay [11]: 0.032 µM | I-ADP, % of control (O2 consumption rate) ([11]; 0.0064 µM): 94 (46.6) % of control | I-sub, % of control (O2 consumption rate) ([11]; 0.0064 µM): 108 (14.9) % of control | II-ADP, % of control (O2 consumption rate) ([11]; 0.0064 µM): 96 (85.4) % of control | II-sub, % of control (O2 consumption rate) ([11]; 0.0064 µM): 90 (24.4) % of control | I-ADP, % of control (O2 consumption rate) ([11]; 0.032 µM): 100 (49.4) % of control | I-sub, % of control (O2 consumption rate) ([11]; 0.032 µM): 131 (18.2) % of control | II-ADP, % of control (O2 consumption rate) ([11]; 0.032 µM): 96 (85.4) % of control | II-sub, % of control (O2 consumption rate) ([11]; 0.032 µM): 126 (34.2) % of control | I-ADP, % of control (O2 consumption rate) ([11]; 0.16 µM): 115 (56.7) % of control | I-sub, % of control (O2 consumption rate) ([11]; 0.16 µM): 251 (34.8) % of control | II-ADP, % of control (O2 consumption rate) ([11]; 0.16 µM): 97 (86.6) % of control | II-sub, % of control (O2 consumption rate) ([11]; 0.16 µM): 260 (70.2) % of control | I-ADP, % of control (O2 consumption rate) ([11]; 0.8 µM): 125 (61.6) % of control | I-sub, % of control (O2 consumption rate) ([11]; 0.8 µM): 386 (53.5) % of control | II-ADP, % of control (O2 consumption rate) ([11]; 0.8 µM): 67 (59.7) % of control | II-sub, % of control (O2 consumption rate) ([11]; 0.8 µM): 247 (66.9) % of control | I-ADP, % of control (O2 consumption rate) ([11]; 4 µM): 74 (36.5) % of control | I-sub, % of control (O2 consumption rate) ([11]; 4 µM): 264 (36.5) % of control | II-ADP, % of control (O2 consumption rate) ([11]; 4 µM): 44 (39.6) % of control | II-sub, % of control (O2 consumption rate) ([11]; 4 µM): 189 (51.0) % of control | I-ADP, % of control (O2 consumption rate) ([11]; 20 µM): 73 (36.0) % of control | I-sub, % of control (O2 consumption rate) ([11]; 20 µM): 278 (38.5) % of control | II-ADP, % of control (O2 consumption rate) ([11]; 20 µM): 39 (34.6) % of control | II-sub, % of control (O2 consumption rate) ([11]; 20 µM): 165 (44.6) % of control | I-ADP, % of control (O2 consumption rate) ([11]; 100 µM): 86 (39.1) % of control | I-sub, % of control (O2 consumption rate) ([11]; 100 µM): 263 (40.0) % of control | II-ADP, % of control (O2 consumption rate) ([11]; 100 µM): 38 (27.2) % of control | II-sub, % of control (O2 consumption rate) ([11]; 100 µM): 98 (30.8) % of control | Parkin recruitment [12]: Active | Parkin translocation into mitochondria (in words) [12]: significantly increased Parkin translocation into mitochondria | ROS (HepG2) (efficacy) [13]: 2.49±0.45 ( 35.9±5.66 ) % | EC50 [13]: 2490 nM | LEC LUM: lowest effect concentration for luminescence, a measure of nematode ATP content ([14]; in vivo): 5 µM
